Experimental data as given in patent US12195427B2, “MASP-2 inhibitors and methods of use” (priority 2018, dated 2025).
Structures can show the parent of a compound that is named as a salt.

Target: MASP-2 CCP2-SP (Homo sapiens (Human), UniProt O00187)
Assay: MASP-2 co-crystallization, X-ray crystallography and structure analysis (H-bonds, van der Waals contacts);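 on Ligand-pharmacophore element distance, pharmacophore element C2: distance from averaged pharmacophore element to bound ligand; missing value means element absent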;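 on Ligand-pharmacophore element distance, pharmacophore element C3: distance from averaged pharmacophore element to bound ligand; missing value means element absent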;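 on Ligand-pharmacophore element distance, pharmacophore element C4: distance from averaged pharmacophore element to bound ligand; missing value means element absent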;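 on Ligand-pharmacophore element distance, pharmacophore element C5: distance from averaged pharmacophore element to bound ligand; missing value means element absent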
Design: van der Waals contact distance, MASP-2 HIS 483 atom CD2 / van der Waals contact distance, MASP-2 HIS 483 atom NE2 / van der Waals contact distance, SER 654 C to compound atom / van der Waals contact distance, SER 654 O to compound atom / van der Waals contact distance, TRP 655 C to compound atom / van der Waals contact distance, MASP-2 GLY 528 atom CA / van der Waals contact distance TRP 655 atom CZ3 / van der Waals contact distance TRP 655 atom N / van der Waals contact distance TRP 655 atom CE3 / van der Waals contact distance GLY 656 atom C / van der Waals contact distance GLY 656 atom CA / van der Waals contact distance GLY 656 atom O / van der Waals contact distance, MASP-2 TYR 607 atom CD1 / van der Waals contact distance, MASP-2 PRO 606 atom O / d(C3,CA1) / d(CA1,N1)2 / d(H4,O1) / d(H4,O2) / d(O1,O2) / d(CA1,O2) / d(CA6,O1) / d(CA6,O2) / d(CA1,C5) / d(O2,H3) / d(N2,C2) / d(CA5,N2) / d(N2,C4) / d(N2,C6) / d(N2,CA3) / d(N2,O3) / d(O4,H2): unit not given beside the values
Settings: for H-bond distance to MASP-2 GLY 656 atom N: GLY 656 N; for H-bond distance to MASP-2 GLY 656 atom O: GLY 656 O; for H-bond distance to MASP-2 SER 654 atom O: SER 654 O; for van der Waals contact distance, MASP-2 HIS 483 atom CD2 / van der Waals contact distance, MASP-2 HIS 483 atom NE2: Table A2-1; for Ligand-pharmacophore element distance, pharmacophore element C2 / Ligand-pharmacophore element distance, pharmacophore element C3 / Ligand-pharmacophore element distance, pharmacophore element C4 / Ligand-pharmacophore element distance, pharmacophore element C5 / Ligand-pharmacophore element distance, pharmacophore element C6 / Ligand-pharmacophore element distance, pharmacophore element C7 / Ligand-pharmacophore element distance, pharmacophore element CA1 / Ligand-pharmacophore element distance, pharmacophore element CA2 / Ligand-pharmacophore element distance, pharmacophore element CA3 / Ligand-pharmacophore element distance, pharmacophore element CA4 / Ligand-pharmacophore element distance, pharmacophore element CA5 / Ligand-pharmacophore element distance, pharmacophore element CA6: Table A4-1
Method in brief: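 Contacts and H-bonds come from partially refined soaked-crystal structures of recombinant human CCP2-SP made in E. coli, solved by molecular replacement against 1Q3X fragments. Where several ligand poses appeared, only one was analysed; listed nonbonded contacts may include possible H-bond pairings.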

[1] = Table A5-1 pharmacophore: distance between elements, S2/S1 region
[2] = Table A5-2 pharmacophore distance, S3/S4 region
[3] = Table A7-1, between pharmacophore elements of the bound compound
[4] = Table A7-2, between pharmacophore elements of the bound compound

MASP-2 CCP2-SP, sequence (O00187 445-686): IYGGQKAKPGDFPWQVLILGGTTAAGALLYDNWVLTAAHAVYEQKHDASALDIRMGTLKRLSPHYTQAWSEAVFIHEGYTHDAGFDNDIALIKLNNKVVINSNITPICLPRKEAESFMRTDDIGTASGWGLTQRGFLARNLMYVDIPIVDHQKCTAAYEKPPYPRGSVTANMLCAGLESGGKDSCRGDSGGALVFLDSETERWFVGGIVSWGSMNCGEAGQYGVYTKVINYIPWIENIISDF
MASP-2 CCP2-SP, sequence (O00187 364-432 partner): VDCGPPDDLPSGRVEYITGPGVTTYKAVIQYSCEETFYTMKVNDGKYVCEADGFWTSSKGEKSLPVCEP

C[C@H](NC(=O)[C@H]1C[C@@H](c2ccccc2)CCN1)C(=O)NCc1cnc2[nH]cc(Cl)c2c1 [compound 1433, (2R,4S)—N—((S)-1-(((3-Chloro-1H-pyrrolo[2,3-b]pyridin-5-yl)methyl)amino)-1-oxopropan-2-yl)-4-phenylpiperidine-2-carboxamide]
H-bond distance to MASP-2 GLY 656 atom N (Table A1 (H-Bonds)): 3.13 | H-bond distance to MASP-2 GLY 656 atom O (Table A1 (H-Bonds)): 2.75 | H-bond distance to MASP-2 SER 654 atom O (Table A1 (H-Bonds)): 2.89 | van der Waals contact distance, MASP-2 HIS 483 atom CD2: 3.73 | van der Waals contact distance, MASP-2 HIS 483 atom NE2: 3.76 | van der Waals contact distance, MASP-2 PHE 529 atom CE1 (Table A2-3): 3.77 | van der Waals contact distance, MASP-2 PHE 529 atom CE2 (Table A2-3): 3.82 | van der Waals contact distance, MASP-2 amino acid atom to compound atom (Table A2-5: TYR 607 (CE1, CE2, OH), PRO 608 (CD, CG), SER 611 (CA)): 3.73 | van der Waals contact distance, MASP-2 amino acid atom to compound atom (Table A2-9 second part, ARG 630, AA atoms N, NE, NH1): 3.49 | van der Waals contact distance, VAL 653 CG1 to compound atom (Table A2-11): 3.71 | van der Waals contact distance TRP 655 atom CE3 (Table A2-13, MASP-2 TRP 655 CE3, compound atom in line below): 3.59 | van der Waals contact distance TRP 655 atom CZ3 (Table A2-13, MASP-2 TRP 655 CZ3): 3.73 | van der Waals contact distance TRP 655 atom N (Table A2-13, MASP-2 TRP 655 N): 3.68 | Ligand-pharmacophore element distance, pharmacophore element C2: 0.26 | Ligand-pharmacophore element distance, pharmacophore element C3: 0 | Ligand-pharmacophore element distance, pharmacophore element C4: 0 | Ligand-pharmacophore element distance, pharmacophore element C5: 0.2 | Ligand-pharmacophore element distance, pharmacophore element C6: 0 | Ligand-pharmacophore element distance, pharmacophore element C7: 0 | Ligand-pharmacophore element distance, pharmacophore element CA1: 0.98 | Ligand-pharmacophore element distance, pharmacophore element CA2: 0.18 | Ligand-pharmacophore element distance, pharmacophore element CA3: 0 | Ligand-pharmacophore element distance, pharmacophore element CA4: 0 | Ligand-pharmacophore element distance, pharmacophore element CA5: 0 | Ligand-pharmacophore element distance, pharmacophore element CA6: 0 | d(CA1,C5) [1]: 3.47 | d(CA1,O1) [1]: 5.49 | d(CA1,O2) [1]: 4.76 | d(CA1,O4) [1]: 1.77 | d(H4,O1) [1]: 3.16 | d(H4,O2) [1]: 3.59 | d(O1,O2) [1]: 3.46 | d(N2,C2) [2]: 1.51 | d(N2,CA2) [2]: 5.79 | d(O2,H3) [2]: 2.89 | d(O2,N2) [2]: 2.65 | a(C5, CA1, O1) (Table A6-1 pharmacophore angle): 151.25 | a(CA1, O1, O2) (Table A6-1 pharmacophore angle): 97.80 | a(O1, CA1, O4) (Table A6-1 pharmacophore angle): 65.77 | a(O1, O2, H4) (Table A6-1 pharmacophore angle): 118.66 | a(O1, O2, H3) (Table A6-2 pharmacophore angle): 135.90 | a(O1, O2, N2) (Table A6-2 pharmacophore angle): 141.60 | a(O2, N2, C2) (Table A6-2 pharmacophore angle): 129.89 | a(O2, N2, CA2) (Table A6-2 pharmacophore angle): 155.75 | Pharmacophore torsion angle a(C5, CA1, O1, H4) [3]: 6.40 | Pharmacophore torsion angle a(H4, O1, O2, H3) [3]: 109.26 | Pharmacophore torsion angle a(H4, O1, O2, N2) [3]: −171.69 | Pharmacophore torsion angle a(O1, H4, O2, CA1) [3]: −96.26 | Pharmacophore torsion angle a(O1, O2, N2, C2) [3]: 118.46 | Pharmacophore torsion angle a(O1, O2, N2, CA2) [4]: 127.94

Cc1nc(N)ccc1CNC(=O)[C@H](C)NC(=O)[C@H]1C[C@H](Cc2cc(Cl)cc(Cl)c2)CN1 [compound 1435, (2R,4S)—N—((S)-1-(((6-Amino-2-methylpyridin-3-yl)methyl)amino)-1-oxopropan-2-yl)-4-(3,5-dichlorobenzyl)pyrrolidine-2-carboxamide Dihydrochloride]
H-bond distance to MASP-2 ASP 627 atom OD2 (Table A1 (H-Bonds), ASP 627 OD2): 3.32 | H-bond distance to MASP-2 GLY 656 atom N (Table A1 (H-Bonds)): 3.26 | H-bond distance to MASP-2 GLY 656 atom O (Table A1 (H-Bonds)): 2.79 | H-bond distance to MASP-2 SER 654 atom O (Table A1 (H-Bonds)): 3.01 | H-bond distance to MASP-2 SER 657 atom O (Table A1 (H-Bonds), SER 657 O): 2.84 | van der Waals contact distance, MASP-2 amino acid atom to compound atom (Table A2): 3.83 | van der Waals contact distance, MASP-2 HIS 483 atom CD2: 3.7 | van der Waals contact distance, MASP-2 HIS 483 atom NE2: 3.6 | van der Waals contact distance, MASP-2 PHE 529 atom CD2 (Table A2-3): 3.61 | van der Waals contact distance, MASP-2 amino acid atom to compound atom (Table A2-7: SER 628 (CB, O, OG)): 3.67 | van der Waals contact distance, TRP 655 CA to compound atom (Table A2-12): 3.41 | Ligand-pharmacophore element distance, pharmacophore element C2: 0 | Ligand-pharmacophore element distance, pharmacophore element C3: 0.15 | Ligand-pharmacophore element distance, pharmacophore element C4: 1.37 | Ligand-pharmacophore element distance, pharmacophore element C5: 0 | Ligand-pharmacophore element distance, pharmacophore element C6: 0.38 | Ligand-pharmacophore element distance, pharmacophore element C7: 0 | Ligand-pharmacophore element distance, pharmacophore element CA1: 0.6 | Ligand-pharmacophore element distance, pharmacophore element CA2: 0.8 | Ligand-pharmacophore element distance, pharmacophore element CA3: 0 | Ligand-pharmacophore element distance, pharmacophore element CA4: 0 | Ligand-pharmacophore element distance, pharmacophore element CA5: 0 | Ligand-pharmacophore element distance, pharmacophore element CA6: 0 | d(C3,CA1) [1]: 2.85 | d(CA1,N1)2 [1]: 1.38 | d(CA1,O1) [1]: 4.36 | d(CA1,O2) [1]: 3.86 | d(H4,O1) [1]: 4.37 | d(H4,O2) [1]: 3.79 | d(O1,O2) [1]: 3.37 | d(N2,C4) [2]: 8.24 | d(N2,C4)4 [2]: 8.24 | d(N2,C6) [2]: 7.51 | d(N2,CA2) [2]: 6.00 | d(O2,H3) [2]: 4.33 | d(O2,N2) [2]: 2.62 | a(C3, CA1, O1) (Table A6-1 pharmacophore angle): 149.49 | a(CA1, O1, O2) (Table A6-1 pharmacophore angle): 106.19 | a(O1, O2, H4) (Table A6-1 pharmacophore angle): 131.96 | a(N1, CA1, O1) b) (Table A6-1 pharmacophore angle, Methyl-amino-pyridine compounds): 173.74 | a(O1, O2, H3) (Table A6-2 pharmacophore angle): 147.24 | a(O1, O2, N2) (Table A6-2 pharmacophore angle): 139.75 | a(O2, N2, C4) (Table A6-2 pharmacophore angle): 164.21 | a(O2, N2, C4) 2 (Table A6-2 pharmacophore angle): 121.06 | a(O2, N2, C6) (Table A6-2 pharmacophore angle): 99.38 | a(O2, N2, CA2) (Table A6-2 pharmacophore angle): 157.86 | Pharmacophore torsion angle a(C3, CA1, O1, H4) [3]: 24.44 | Pharmacophore torsion angle a(H4, O1, O2, H3) [3]: 51.39 | Pharmacophore torsion angle a(H4, O1, O2, N2) [3]: 136.22 | Pharmacophore torsion angle a(N1, CA1, O1, H4) [3]: 1.43 | Pharmacophore torsion angle a(O1, H4, O2, CA1) [3]: −83.48 | Pharmacophore torsion angle a(O1, O2, N2, C6) [4]: 137.30 | Pharmacophore torsion angle a(O1, O2, N2, CA2) [4]: 123.48
